The conditions of data set [1]: cited from earlier work.
The test system of data set [2] is Clostridium difficile infections (CDI). The conditions noted are these: oral administration; cited from earlier work.
The subject of data set [3] is anaerobes, in particular Gram-positive anaerobes. Particulars: cited from earlier work.
For data set [4] the following is noted: in vivo; cited from earlier work.
The test system of a further data set is Gram-negative species. The data set is described as follows: Fecal microflora after i.v. infusions in healthy volunteers. In kind it is in vivo, human. Particulars: Compound 1 i.v. 6 mg/kg over 12 hours for 5 days. The procedure:
(§1) Healthy human volunteers received i.v. infusions of Compound 1 at a dose of 6 mg/kg body weight over 12 hours for 5 consecutive days. […] Viable counts of lactobacilli were reduced from predose to Day 5 by 4.0 log 10 CFU/g. […] Likewise, enterococci were reduced from predose to Day 5 by 3.8 log 10 CFU/g on average.

The nature of data set [5]: First-in-Man study: iv. bolus or 20 min infusion of Compound 1. Particulars: for AUC / Cmax: male, human, plasma, mean. Format: in vivo, humans. The procedure:
Volunteers were administered doses of up to 3.0 mg/kg body weight (BW) of Compound 1 given as iv. bolus injection of 2 min duration. Additionally, doses of 1.5 and 3.0 mg/kg BW of Compound 1 were administered as a short-term infusion of 20 min duration, resulting in infusion rates of 4.5 and 9.0 mg/(kg BW×h), respectively.

The next data set has as its system Clostridium spp. The data set is described as follows: Fecal microflora viable counts after i.v. infusions in healthy volunteers. Format: in vivo, human. The procedure:
as §1

The test system of a further data set is lactobacilli. The description is as above. Format: in vivo, human. The conditions noted are these: Compound 1 i.v. 6 mg/kg over 12 hours for 5 days. The procedure:
as §1

Another data set deals with enterococci. The description is as above. In kind it is in vivo, human. The conditions noted are these: Compound 1 i.v. 6 mg/kg over 12 hours for 5 days. The procedure: as §1
The subject of a further data set is bifidobacteria. The description is as above. The conditions noted are these: Compound 1 i.v. 6 mg/kg over 12 hours for 5 days. Format: in vivo, human. The procedure: as §1
The next data set concerns Clostridium difficile. The data set is described as follows: Antimicrobial susceptibility of 114 C. difficile strains by agar dilution method. The conditions noted are these: for MIC50: Clostridioides difficile, read-out: MIC50. Format: cell-based. The procedure:
One hundred fourteen Clostridium difficile strains were collected from 67 patients and analyzed for the presence of C. difficile toxin B by the cell cytotoxicity neutralization assay, genes for toxin A, toxin B, binary toxin and TcdC deletion by PCR. All strains were also PCR-ribotyped. The MICs of the isolates were determined against Compound 2 by the agar dilution method. All isolates were positive for toxin B. One hundred thirteen isolates were positive for toxin A and B genes. In addition, 13 isolates were positive for the binary toxin genes. Thirty-two different ribotypes were identified. No strain of ribotype 027 was found.
One hundred fourteen C. difficile strains were selected from patients (26 males and 41 females) with primary and/or recurrent CDI. The mean age of the patients was 74 years (age range 19-97 years). The strains (67 primary and 47 recurrent isolates) were identified by characteristic colony morphology, typical smell and Gram staining. Gas chromatography was used to detect volatile, short chain fatty acids production by the C. difficile strains for the final identification.
The antimicrobial susceptibility of the C. difficile strains was determined according to CLSI guidelines by the agar dilution method using Bacteroides fragilis ATCC 25285 and C. difficile ATCC 700057 as reference strains [CLSI. Methods for Antimicrobial Susceptibility Testing of Anaerobic Bacteria; Approved Standard-Eighth Edition. 2012].
MIC was defined as the lowest concentration of the drug that inhibited growth completely. MIC50/90 corresponds to the concentrations that inhibit the growth of 50% and 90%, of the strains tested, respectively.
PCR ribotype profiles from clinical isolates were compared to those profiles which define the database by maximum matching with Pearson correlation. IBM SPSS Statistics 22 (Armonk, N.Y., USA) software was used to calculate the percentiles 50 and 90 of the MIC results. Descriptive statistics were used to summarize the results.

For data set [6], the system named is Enterococcus faecalis ATCC 51299. The data set is described as follows: MIC testing according to CLSI guidelines. Particulars: ATCC51299. In kind it is cell-based. An excerpt:
(§2) MIC testing was done according to CLSI (formerly NCCLS) guidelines: Performance Standards for Antimicrobial Susceptibility Testing 11th Informational Supplement, Vol. 21 No 1, M100-S11, January 2001. NCCLS. Revised edition: 17th Informational Supplement, Vol. 27 No 1, […], January 2007.

Data set [7] has as its system Enterococcus faecalis ATCC 29212. The data set is described as follows: MIC testing according to CLSI guidelines. Format: cell-based. The conditions noted are these: ATCC29212.
Excerpt: as §2

The test system of data set [8] is Staphylococcus aureus Visa Mu 50. The data set is described as follows: MIC testing according to CLSI guidelines. Format: cell-based.
Excerpt: as §2

In data set [9] the test system is Staphylococcus aureus ATCC 43300. The data set is described as follows: MIC testing according to CLSI guidelines. In kind it is cell-based. Particulars: ATCC43300.
Excerpt: as §2

Data set [10] has as its system Streptococcus pneumoniae ATCC 33400. The data set is described as follows: MIC testing according to CLSI guidelines. Format: cell-based. The conditions noted are these: ATCC33400.
Excerpt: as §2

Data set [11] has as its system Staphylococcus aureus ATCC 29213. The data set is described as follows: MIC testing according to CLSI guidelines. Format: cell-based. Particulars: ATCC29213.
Excerpt: as §2

The test system of data set [12] is Staphylococcus aureus NRS 120. The data set is described as follows: MIC testing according to CLSI guidelines. In kind it is cell-based. Particulars: NRS120.
Excerpt: as §2

The subject of data set [13] is Staphylococcus aureus ATCC 33593. The data set is described as follows: MIC testing according to CLSI guidelines. Format: cell-based. Particulars: ATCC33593.
Excerpt: as §2

The subject of data set [14] is C difficile. Particulars: cited from earlier work.
Data set [15] concerns C difficile. Particulars: cited from earlier work. This is another data set of the same source.
Data set [16] is described as follows: Solubility in aqueous media. Format: physicochemical.
Where [17] appears, read: intravenous, Drug after 3.0 mg/kg BW Compound 1, 20 min infusion, 9.0 mg/(kg BW·h).
Where [18] appears, read: Drug after 3.0 mg/kg BW Compound 1 iv. bolus.
[19] abbreviates: 114 C. difficile strains, agar dilution.

Converted amounts (≈) assume the structure as drawn. Where a name gives a salt, the structure may show the parent alone. Read-outs that look alike come from different tables or passages of the source.

As for `Cc1ncc([N+](=O)[O-])n1CCO` [metronidazole], in data set [1], the “Toxicity associated with long term treatment” value is given as “neurotoxicity”.
`CN[C@H](CC(C)C)C(=O)N[C@H]1C(=O)N[C@@H](CC(N)=O)C(=O)N[C@H]2C(=O)N[C@H]3C(=O)N[C@H](C(=O)N[C@H](C(=O)O)c4cc(O)cc(O)c4-c4cc3ccc4O)[C@H](O)c3ccc(c(Cl)c3)Oc3cc2cc(c3O[C@@H]2O[C@H](CO)[C@@H](O)[C@H](O)[C@H]2O[C@H]2C[C@](C)(N)[C@H](O)[C@H](C)O2)Oc2ccc(cc2Cl)[C@H]1O` [vancomycin]: in data set [1], the “Toxicity associated with long term treatment” value is reported as “nephrotoxicity”.
Consider `CCc1c(Cl)c(O)c(Cl)c(O)c1C(=O)O[C@H]1[C@H](O)[C@H](OC)[C@H](OC/C2=C\C=C\C[C@H](O)/C(C)=C/[C@H](CC)[C@@H](O[C@@H]3OC(C)(C)[C@@H](OC(=O)C(C)C)[C@H](O)[C@@H]3O)/C(C)=C/C(C)=C/C[C@@H]([C@@H](C)O)OC2=O)O[C@@H]1C` [fidaxomicin], for which the “Frequency of recurrence of CDI” value in [2] was “approximately 13%”.
Consider `O=C(O)c1cn(C2CC2)c2cc(N3CCNCC3)c(F)cc2c1=O` [Ciprofloxacin], for which the “Activity in vitro against anaerobes” value in data set [3] is “neither active in vitro”. Moreover, the Fecal concentrations entry in [4] is on record as “high”.
As for `CC(=O)NC[C@H]1CN(c2ccc(OCC3(O)CCN(c4cc5c(cc4F)c(=O)c(C(=O)O)cn5C4CC4)CC3)c(F)c2)C(=O)O1` [Compound 2, 7-(4-{4-[(5S)-5-(Acetylamino-methyl)-2-oxo-oxazolidin-3-yl]-2-fluoro-phenoxymethyl}-4-hydroxy-piperidin-1-yl)-1-cyclopropyl-6-fluoro-4-oxo-1,4-dihydro-quinoline-3-carboxylic acid], in the data set on Gram-negative species, the “Effect of exposure of the fecal flora on Gram-negative species” value was “did not affect”. For the same compound, the AUC (usually concentration integrated over time) in [5] (setting [17]) worked out at 3230 ng·h/mL; in [5] (setting [18]), 2170 ng·h/mL. Further, the Cmax (commonly the peak of the concentration-time curve) in data set [5] (setting [17]) was found to be 3180 ng/mL; in data set [5] (setting [18]), 2450 ng/mL. In the data set with Clostridium spp. (Compound 1 i.v. 6 mg/kg over 12 hours for 5 days), the “Reduction of viable counts of Clostridium spp. from predose to Day 5” value amounted to 3.0 log 10 CFU/g. Moreover, in the data set with Clostridium spp. (all except one of the volunteers), the “Viable counts of Clostridium spp. until Day 3 postdose” value is given as “reduced below the limit of detection”. Moreover, in the data set on lactobacilli, the “Reduction of viable counts of lactobacilli from predose to Day 5” value is on record as 4.0 log 10 CFU/g. The “Reduction of enterococci from predose to Day 5, on average” value with enterococci is on record as 3.8 log 10 CFU/g. For the same compound, the “Reduction of viable counts of bifidobacteria from predose to Day 5” value in the data set with bifidobacteria was 7.9 log 10 CFU/g. Further, the MIC range against Clostridium difficile (114 C. difficile isolates, agar dilution) is 0.008-0.5 mg/1; against Clostridium difficile (setting [19]), 0.008 to 0.5 mg/L. Moreover, the MIC90 in the data set on Clostridium difficile (setting [19]) was 0.064 mg/1. Also, the MIC50 (as a rule, an inhibitory concentration at the 50% level, which refers to growth in some studies and to a panel of isolates in others) in the data set with Clostridium difficile is 0.064 µg/mL (≈ 0.102 µM); in the data set with Clostridium difficile (setting [19]), 0.032 µg/mL (≈ 0.0511 µM). Besides, the “Susceptibility of the C. difficile isolates” value in the data set with Clostridium difficile (all 114 isolates) was “sensitive”. For the same compound, the MIC (commonly the lowest concentration that inhibits growth of the organism) in data set [6] is 0.25 µg/mL (≈ 0.399 µM); in data set [7], 0.25 µg/mL (≈ 0.399 µM); in [8] it was 0.5 µg/mL (≈ 0.798 µM); in data set [9] it was 0.5 µg/mL (≈ 0.798 µM); in data set [10] it was 0.03 µg/mL (≈ 0.0479 µM); in [11], 0.5 µg/mL (≈ 0.798 µM). The MIC in data set [12] came out at 2 µg/mL (≈ 3.19 µM); in [13] it was 0.25 µg/mL (≈ 0.399 µM).
With `CC(=O)NC[C@H]1CN(c2ccc(N3CCOCC3)c(F)c2)C(=O)O1` [linezolid], the “Activity in an in vitro human gut model” value with C difficile [14] was “inactive”. Also, the “Activity in vitro against C difficile” value in the data set with C difficile [15] is “active”. Further, in data set [4], the Fecal concentrations entry was “negligibly low” and the “Fraction of the dose excreted via the feces” value was 0.2 % of the dose.
On to `CC(=O)NC[C@H]1CN(c2ccc(OCC3(OP(=O)(O)O)CCN(c4cc5c(cc4F)c(=O)c(C(=O)O)cn5C4CC4)CC3)c(F)c2)C(=O)O1` [Compound 1, sodium salt of 7-(4-{4-[(5S)-5-(Acetylamino-methyl)-2-oxo-oxazolidin-3-yl]-2-fluoro-phenoxymethyl}-4-phosphonooxy-piperidin-1-yl)-1-cyclopropyl-6-fluoro-4-oxo-1,4-dihydro-quinoline-3-carboxylic acid], for which the “Solubility in aqueous media” value in data set [16] is given as “very good solubility”. The “AUC of the Prodrug, 20 min infusion compared to bolus administration” value in [5] (3.0 mg/kg BW) is “lower AUC”. The “Conversion of the Prodrug to the Drug” value in data set [5] (humans, all doses applied) is on record as “very rapid conversion”.

Source of the values: patent US10723746B2, “Oxazolidinone-quinolone hybrid antibacterials for the parenteral treatment or prophylaxis of bacterial diseases” (MORPHOCHEM AKTIENGESELLSCHAFT FÜR KOMBINATORISCHE CHEMIE, priority 2013, dated 2020).
